Data set [1] concerns the target T1, hM1 (Homo sapiens, UniProt P11229).
T1 sequence (P11229 1-460): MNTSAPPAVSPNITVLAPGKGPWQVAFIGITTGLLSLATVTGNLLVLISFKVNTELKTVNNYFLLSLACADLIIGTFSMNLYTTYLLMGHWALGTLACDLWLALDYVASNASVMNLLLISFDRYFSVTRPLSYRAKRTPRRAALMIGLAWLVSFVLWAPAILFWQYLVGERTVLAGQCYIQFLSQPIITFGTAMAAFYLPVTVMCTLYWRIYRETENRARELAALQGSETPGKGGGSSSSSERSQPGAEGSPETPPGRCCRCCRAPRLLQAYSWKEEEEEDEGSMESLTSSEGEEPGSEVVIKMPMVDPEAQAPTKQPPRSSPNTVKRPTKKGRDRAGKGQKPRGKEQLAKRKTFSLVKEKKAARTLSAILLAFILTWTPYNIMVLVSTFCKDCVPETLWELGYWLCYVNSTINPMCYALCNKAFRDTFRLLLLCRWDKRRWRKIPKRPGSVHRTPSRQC
The experiment in a line: whole-cell [3H]NMS competition binding. The settings on record: hM1, FlpIn CHO cells, mean (±SEM).

Data set [2] deals with T1, hM1. Briefly: IP-One accumulation assay. It counts as cell-based. The settings on record: wildtype hM1.
The target of data set [3] is T2, hM1Dq (Homo sapiens, UniProt P11229, A196G/Y106C).
T2 sequence (P11229 1-460 Y106C/A196G): T1 sequence (P11229 1-460) with Y106C, A196G
Briefly: IP-One accumulation assay.

Data set [4] deals with hM4Di expressed in PVH SIM1 neurons. Briefly: food intake, hM4Di in PVH SIM1 neurons (Sim1-Cre mice).
In data set [5] the target is T3, hM4Di (Homo sapiens, UniProt P08173, A203G/Y113C).
T3 sequence (P08173 1-479 Y113C/A203G): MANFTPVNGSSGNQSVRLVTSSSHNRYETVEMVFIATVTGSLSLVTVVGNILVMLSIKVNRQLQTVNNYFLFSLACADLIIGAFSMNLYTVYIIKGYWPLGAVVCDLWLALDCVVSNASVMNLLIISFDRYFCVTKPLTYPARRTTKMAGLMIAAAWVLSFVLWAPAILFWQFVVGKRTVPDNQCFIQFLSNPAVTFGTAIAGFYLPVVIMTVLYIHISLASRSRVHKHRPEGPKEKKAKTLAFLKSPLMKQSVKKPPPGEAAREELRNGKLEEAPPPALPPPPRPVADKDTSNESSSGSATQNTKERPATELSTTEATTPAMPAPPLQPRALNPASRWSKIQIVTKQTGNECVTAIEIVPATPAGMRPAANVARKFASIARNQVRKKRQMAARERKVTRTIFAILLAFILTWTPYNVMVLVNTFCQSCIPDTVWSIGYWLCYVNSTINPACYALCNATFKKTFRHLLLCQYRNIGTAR
The experiment in a line: inhibition of isoproterenol-stimulated cAMP production. More on the design: expressed in transfected cells. Format: cell-based. The following applies: inhibition of isoproterenol elevated cAMP, mean (±SEM).

The target of data set [6] is T2, hM1Dq. The experiment in a line: whole-cell [3H]NMS competition binding.
For data set [7], the target named is T4, hM3Dq (Homo sapiens, UniProt P20309, A239G/Y149C).
T4 construct: expressed in transfected cells
The experiment in a line: Gq-mediated calcium release (FLIPR) assay. It counts as cell-based. The following applies: CHO cells, mean ± SEM.

The conditions of data set [8]: cited from earlier work.
The target in data set [9] is T1, hM1. The experiment in a line: ERK1/2 phosphorylation (pERK1/2) assay. Format: cell-based. The settings on record: wildtype hM1.
The target in data set [10] is T3, hM4Di. The experiment in a line: ERK1/2 phosphorylation (pERK1/2) assay.
Data set [11] has as its system hM3Dq expressed in ARC AgRP neurons. The experiment in a line: food intake, hM3Dq in ARC AgRP neurons (Agrp-ires-Cre mice).
The target of data set [12] is T2, hM1Dq. The experiment in a line: ERK1/2 phosphorylation (pERK1/2) assay.
The target in data set [13] is T3, hM4Di. The experiment in a line: whole-cell [3H]NMS competition binding.
Data set [14] concerns the target T5, hM4 (Homo sapiens, UniProt P08173).
T5 construct: HA (hemagglutinin); expressed in transfected cells
T5 sequence (P08173 1-479): T3 sequence (P08173 1-479 Y113C/A203G) with C113Y, G203A
Briefly: whole-cell [3H]NMS competition binding. The settings on record: hM4, FlpIn CHO cells, mean (±SEM).

Data set [15] concerns the target T5, hM4. Briefly: inhibition of isoproterenol-stimulated cAMP production. Format: cell-based. The following applies: hM4, inhibition of isoproterenol elevated cAMP, mean (±SEM). Background: Changes in cAMP serve as a functional read-out for many G protein-coupled receptors.
Data set [16] in a line: brain and plasma exposure after i.p. administration. It counts as in vivo, mice. The following applies: i.p. 0.1, 1 and 10 mg/kg, 30 min after administration.
On the set-up of data set [17]: method as in PMID 28324647. The settings on record: following systemic administration of 10 mg/kg CNO; cited from earlier work.

Numbering of substitutions follows the chain as printed. Where two headings read alike, the source gives them in different places.

T4 sequence (P20309 whole entry Y149C/A239G): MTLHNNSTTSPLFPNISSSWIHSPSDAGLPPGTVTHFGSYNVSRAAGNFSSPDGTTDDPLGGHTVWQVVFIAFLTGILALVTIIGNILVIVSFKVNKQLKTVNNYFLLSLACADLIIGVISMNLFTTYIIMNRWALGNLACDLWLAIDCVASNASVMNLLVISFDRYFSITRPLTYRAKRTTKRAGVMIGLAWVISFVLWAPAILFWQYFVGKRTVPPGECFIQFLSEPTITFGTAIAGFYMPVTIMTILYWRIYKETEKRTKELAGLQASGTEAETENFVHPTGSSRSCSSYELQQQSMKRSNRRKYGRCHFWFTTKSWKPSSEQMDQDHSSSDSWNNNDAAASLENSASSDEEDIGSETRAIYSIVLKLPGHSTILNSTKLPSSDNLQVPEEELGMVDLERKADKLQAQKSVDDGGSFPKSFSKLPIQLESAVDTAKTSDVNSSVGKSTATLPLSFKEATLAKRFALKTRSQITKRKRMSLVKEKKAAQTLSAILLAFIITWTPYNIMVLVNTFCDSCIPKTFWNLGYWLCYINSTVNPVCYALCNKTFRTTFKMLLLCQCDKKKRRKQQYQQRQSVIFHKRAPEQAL

One may read the pKi as the negative decadic logarithm of the Ki, by convention in mol/L. A high value points to a small Ki. As for `C[N+]1([O-])CCN(C2=Nc3cc(Cl)ccc3Nc3ccccc32)CC1` [CNO, clozapine-N-oxide], the pKi in data set [1] is recorded as 5.10 (±0.03) N = 7; in data set [6] (hM1Dq, FlpIn CHO cells, [3H]-NMS, mean (±SEM)), 6.74 (±0.10) N = 9; in [13] (hM4Di, FlpIn CHO cells, [3H]-NMS, mean (±SEM)) it was 6.30 (±0.22) N = 3; in data set [14], 4.85 (±0.05) N = 3. Also, in [2], the “agonist activity in IP1 assay” value is recorded as “no agonist activity”. The “pEC50 IP1” value in [3] (hM1Dq, CHO cells, mean (±SEM)) is 8.61 (±0.03) N = 10. Moreover, the “food intake, light cycle, sated mice” value in data set [4] (SIM1-Cre mice with AAV-DIO-hM4Di-mCherry, i.p.) was “increases feeding behavior in sated mice”; in data set [11] (AgRP-ires-Cre mice with AAV-DIO-hM3Dq-mCherry, i.p.), “increases feeding behavior in sated mice”. The entries for the “food intake in control mice” value in data set [4] (wildtype (non-Cre-expressing) littermates injected with AAV-DIO-hM4Di-mCherry) and in data set [11] (wildtype (non-Cre-expressing) littermates injected with AAV-DIO-hM3Dq-mCherry) were “neither C21 nor CNO ligand influenced food intake” and “neither C21 nor CNO affected feeding behavior”, respectively. The “pEC50 cAMP” value in data set [5] is listed as 7.29 (±016) N = 4. Moreover, in data set [6] (hM1Dq vs hM1), the “higher binding affinity at hM1Dq than at wildtype hM1” value is reported as over 10 fold. Besides, the pEC50 calcium mobilization in data set [7] amounted to 7.26±0.07. Further, the “metabolic transformation to clozapine” value is recorded as “approximately 10%” in [8] (humans, nonhuman primates and guinea pigs); “a few percent” in [8] (rodents). Further, the “agonist activity in pERK1/2 assay” value in [9] is recorded as “no agonist activity”. The “pEC50 pERK” value in data set [10] (hM4Di, CHO cells, mean (±SEM)) was 6.89 (±0.12) N = 3; in data set [12] (hM1Dq, CHO cells, mean (±SEM)), 7.70 (±0.25) N = 11. The “higher binding affinity at hM4Di than at wildtype hM4” value in data set [13] (hM4Di vs hM4) is reported as over 10 fold.
On to `CC(=O)OCC[N+](C)(C)C` [ACh, acetylcholine], for which, in [13] (hM4Di vs hM4), the “reduction in binding affinity at hM4Di vs wildtype” value is given as over 10 fold.
What is called Ki is the dissociation constant of the complex between target and ligand, obtained from inhibition or displacement. High values mean a looser hold on the target, low ones a stronger hold on the target. In the case of `CN1CCN(C2=Nc3ccccc3Cc3ccccc32)CC1` [perlapine], the Ki was 91.2 nM in [1], 26.3 nM in data set [6], 67.6 nM in data set [13] and 263 nM in data set [14]. The EC50 is 56.2 nM in [15]; 4.17 nM in data set [3]; 63.1 nM in data set [5]; 8.32 nM in data set [7] (read-out: pEC50 calcium mobilization (converted)); 53.7 nM in data set [10]; 158 nM in data set [12]. Further, the “agonist activity in IP1 assay” value in data set [2] is given as “no agonist activity”. Besides, the “brain and plasma levels” value in [16] was “measurable brain and plasma levels”. Further, the metabolism to clozapine result in data set [16] is given as “no evidence of metabolism to clozapine”. The “agonist activity in pERK1/2 assay” value in data set [9] is “no agonist activity”.
With `Clc1ccc2c(c1)N=C(N1CCNCC1)c1ccccc1N2` [NDMC, N-desmethylclozapine], the “level in cerebrospinal fluid (CSF)” value in [17] is reported as 43 nM.
Regarding `CN1CCN(C2=Nc3cc(Cl)ccc3Nc3ccccc32)CC1` [clozapine, reference compound], the “level in cerebrospinal fluid (CSF)” value in data set [17] is recorded as 34 nM.

The values above are taken from publication PMC6407913, “DREADD Agonist 21 Is an Effective Agonist for Muscarinic-Based DREADDs in Vitro and in Vivo” (ACS Pharmacology & Translational Science, 2018).
